# Read-outs that look alike come from different tables or passages of the source.
# How the values were obtained:
# [1] = tested on: E. coli ATCC 25922; test: MIC assay, CLSI broth microdilution, E. coli ATCC 25922 (AECO001); format: cell-based; conditions: for MIC: Escherichia coli, read-out: MIC AECO001
# Method: (§1) Minimum inhibitory concentrations (MIC) were determined by reference Clinical and Laboratory Standards Institute (CLSI) broth microdilution methods per M7-A7 [2006]. Quality control ranges utilizing E. coli ATCC 25922, P. aeruginosa ATCC 27853 and S. aureus ATCC 29213, and interpretive criteria for comparator agents were as published in CLSI M100-S17 [2007]. Briefly, serial two-fold dilutions of the test compounds were prepared at 2× concentration in Mueller Hinton Broth. The compound dilutions were mixed in 96-well assay plates in a 1:1 ratio with bacterial inoculum. The inoculum was prepared by suspension of a colony from an agar plate that was prepared the previous day. Bacteria were suspended in sterile saline and added to each assay plate to obtain a final concentration of 5×10^5 CFU/mL. The plates were incubated at 35° C. for 20 hours in ambient air.
# These MIC assays were conducted following the same protocol as set forth in Example 110. As shown, substituted sisomicin derivatives with groups other than methyl at the 6′-position have improved activity against strains expressing the AAC6′-modifying enzymes.
# [2] = tested on: P. aeruginosa ATCC 27853; test: MIC assay, CLSI broth microdilution, P. aeruginosa ATCC 27853 (APAE001); format: cell-based; conditions: for MIC: Pseudomonas aeruginosa, read-out: MIC APAE001
# Method: as §1
# [3] = AECO001 is ATCC25922, 35° C., 20 hours
# [4] = APAE001 is ATCC27853, 35° C., 20 hours
Compound,"MIC ([1]; ATCC25922, 20 h) [µg/mL]","MIC ([2]; ATCC27853, 20 h) [µg/mL]",other results
"CN[C@@H]1[C@@H](O)[C@@H](O[C@@H]2[C@@H](O)[C@H](O[C@H]3OC(CNCCCN)=CC[C@H]3N)[C@@H](N)C[C@H]2NS(=O)(=O)CCN)OC[C@]1(C)O [Example 26, 6′-(3-Amino-propyl)-1-(2-amino-ethylsulfonamide)-sisomicin]",1 to 16,1 to 16,–
"CN[C@@H]1[C@@H](O)[C@@H](O[C@@H]2[C@@H](O)[C@H](O[C@H]3OC(CNCC(O)CO)=CC[C@H]3N)[C@@H](N)C[C@H]2NS(=O)(=O)CCN)OC[C@]1(C)O (stereo partly shown) [Example 27, 6′-(2-Hydroxy-propanol)-1-(2-amino-ethylsulfonamide)-sisomicin]",1 to 16,> 16,–
"CN[C@@H]1[C@@H](O)[C@@H](O[C@@H]2[C@@H](O)[C@H](O[C@H]3OC(CNC[C@H](O)CO)=CC[C@H]3N)[C@@H](N)C[C@H]2NC(=O)[C@@H](O)CCN)OC[C@]1(C)O [Example 28, 6′-(2(S)-Hydroxy-propanol)-1-(4-amino-2(S)-hydroxy-butyryl)-sisomicin]",1 to 16,1 to 16,–
"CN[C@@H]1[C@@H](O)[C@@H](O[C@@H]2[C@@H](O)[C@H](O[C@H]3OC(CNCCO)=CC[C@H]3N)[C@@H](N)C[C@H]2NS(=O)(=O)CCN)OC[C@]1(C)O [Example 29, 6′-(2-Hydroxy-ethyl)-1-(2-amino-ethylsulfonamide)-sisomicin]",1 to 16,> 16,–
"CN[C@@H]1[C@@H](O)[C@@H](O[C@@H]2[C@@H](O)[C@H](O[C@H]3OC(CNCC(N)CO)=CC[C@H]3N)[C@@H](N)C[C@H]2NC(=O)[C@@H](O)CCN)OC[C@]1(C)O (stereo partly drawn) [Example 30, 6′-(2-Amino-propanol)-1-(4-amino-2(S)-hydroxy-butyryl)-sisomicin]",< 1,1 to 16,–
CN[C@@H]1[C@@H](O)[C@@H](O[C@@H]2[C@@H](O)[C@H](O[C@H]3OC(CNCC4(O)CCNCC4)=CC[C@H]3N)[C@@H](N)C[C@H]2NC(=O)[C@@H](O)CCN)OC[C@]1(C)O [Example 31],1 to 16,1 to 16,–
"CN[C@@H]1[C@@H](O)[C@@H](O[C@@H]2[C@@H](O)[C@H](O[C@H]3OC(CNCC(O)CCCN)=CC[C@H]3N)[C@@H](N)C[C@H]2NC(=O)[C@@H](O)CCN)OC[C@]1(C)O (stereo partly drawn) [Example 32, 6′-(2-Hydroxy-5-amino-pentyl)-1-(4-amino-2(S)-hydroxy-butyryl)-sisomicin]",< 1,1 to 16,–
"CN[C@@H]1[C@@H](O)[C@@H](O[C@@H]2[C@@H](O)[C@H](O[C@H]3OC(CNC[C@H]4C[C@H](N)C4)=CC[C@H]3N)[C@@H](N)C[C@H]2NC(=O)[C@@H](O)CCN)OC[C@]1(C)O [Example 33, 6′-(Methyl-trans-3-amino-cyclobutyl)-1-(4-amino-2(S)-hydroxy-butyryl)-sisomicin]",< 1,1 to 16,–
CN[C@@H]1[C@@H](O)[C@@H](O[C@@H]2[C@@H](O)[C@H](O[C@H]3OC(CNCC(O)CCN)=CC[C@H]3N)[C@@H](N)C[C@H]2NC(=O)C2(O)CCNC2)OC[C@]1(C)O (stereo partly shown) [Example 35],< 1,1 to 16,–
CN[C@@H]1[C@@H](O)[C@@H](O[C@@H]2[C@@H](O)[C@H](O[C@H]3OC(CNCCO)=CC[C@H]3N)[C@@H](N)C[C@H]2NC(=O)C2(O)CNC2)OC[C@]1(C)O [Example 37],< 1,1 to 16,–
"CN[C@@H]1[C@@H](O)[C@@H](O[C@@H]2[C@@H](O)[C@H](O[C@H]3OC(CNCCN)=CC[C@H]3N)[C@@H](N)C[C@H]2NC(=O)[C@@H](O)CCN)OC[C@]1(C)O [Example 38, 6′-(2-Amino-ethyl)-1-(4-amino-2(S)-hydroxy-butyryl)-sisomicin]",< 1,1 to 16,–
CN[C@@H]1[C@@H](O)[C@@H](O[C@@H]2[C@@H](O)[C@H](O[C@H]3OC(CNCC4(O)CC(CN)C4)=CC[C@H]3N)[C@@H](N)C[C@H]2NC(=O)[C@@H](O)CCN)OC[C@]1(C)O (stereo partly shown) [Example 39],–,–,"MIC [1, 3]: < 1 µg/mL; MIC [2, 4]: 1 to 16 µg/mL"
CN[C@@H]1[C@@H](O)[C@@H](O[C@@H]2[C@@H](O)[C@H](O[C@H]3OC(CNCCCN)=CC[C@H]3N)[C@@H](N)C[C@H]2NC(=O)C2(O)CCNC2)OC[C@]1(C)O (stereo partly shown) [Example 40],1 to 16,1 to 16,–
CN[C@@H]1[C@@H](O)[C@@H](O[C@@H]2[C@@H](O)[C@H](O[C@H]3OC(CNCC4CC4)=CC[C@H]3N)[C@@H](N)C[C@H]2NC(=O)C2(O)CCNC2)OC[C@]1(C)O (stereo partly shown) [Example 41],< 1,1 to 16,–
"CN[C@@H]1[C@@H](O)[C@@H](O[C@@H]2[C@@H](O)[C@H](O[C@H]3OC(CNCC(O)CN)=CC[C@H]3N)[C@@H](N)C[C@H]2NC(=O)C2(O)CCNC2)OC[C@]1(C)O (stereo partly shown) [Example 42, 6′-(2-Hydroxy-3-amino-propyl)-1-(3-hydroxy-pyrrolidin-3-yl-acetyl)-sisomicin]",1 to 16,1 to 16,–
"CN[C@@H]1[C@@H](O)[C@@H](O[C@@H]2[C@@H](O)[C@H](O[C@H]3OC(CNCCCCN)=CC[C@H]3N)[C@@H](N)C[C@H]2NC(=O)[C@@H](O)CCN)OC[C@]1(C)O [Example 43, 6′-(4-Amino-butyl)-1-(4-amino-2(S)-hydroxy-butyryl)-sisomicin]",< 1,< 1,–
"CN[C@@H]1[C@@H](O)[C@@H](O[C@@H]2[C@@H](O)[C@H](O[C@H]3OC(CNCCCCCN)=CC[C@H]3N)[C@@H](N)C[C@H]2NC(=O)[C@@H](O)CCN)OC[C@]1(C)O [Example 44, 6′-(5-Amino-pentyl)-1-(4-amino-2(S)-hydroxy-butyryl)-sisomicin]",< 1,1 to 16,–
CN[C@@H]1[C@@H](O)[C@@H](O[C@@H]2[C@@H](O)[C@H](O[C@H]3OC(CNCC4(O)CC(N)C4)=CC[C@H]3N)[C@@H](N)C[C@H]2NC(=O)[C@@H](O)CCN)OC[C@]1(C)O (stereo partly shown) [Example 46],< 1,1 to 16,–
CN[C@@H]1[C@@H](O)[C@@H](O[C@@H]2[C@@H](O)[C@H](O[C@H]3OC(CNCC4(O)CC(N)C4)=CC[C@H]3N)[C@@H](N)C[C@H]2NC(=O)C2(O)CNC2)OC[C@]1(C)O (stereo partly shown) [Example 47],1 to 16,1 to 16,–
"CN[C@@H]1[C@@H](O)[C@@H](O[C@@H]2[C@@H](O)[C@H](O[C@H]3OC(CNCCCN)=CC[C@H]3N)[C@@H](N)C[C@H]2NC(=O)[C@@H](O)CCN)OC[C@]1(C)O [Example 48, 6′-(3-Amino-propyl)-1-(4-amino-2(S)-hydroxy-butyryl)-sisomicin]",–,–,"MIC [1, 3]: < 1 µg/mL; MIC AECO001 ([1]; Table 3, E. coli ATCC25922): 1 µg/mL; MIC [2, 4]: 1 to 16 µg/mL"
"CN[C@@H]1[C@@H](O)[C@@H](O[C@@H]2[C@@H](O)[C@H](O[C@H]3OC(CNCC4CCCN4)=CC[C@H]3N)[C@@H](N)C[C@H]2NC(=O)[C@@H](O)CCN)OC[C@]1(C)O (stereo partly drawn) [Example 49, 6′-(Methyl-pyrrolidin-2-yl)-1-(4-amino-2(S)-hydroxy-butyryl)-sisomicin]",< 1,1 to 16,–
"CN[C@@H]1[C@@H](O)[C@@H](O[C@@H]2[C@@H](O)[C@H](O[C@H]3OC(CNC[C@H](O)C(=O)O)=CC[C@H]3N)[C@@H](N)C[C@H]2NC(=O)[C@@H](O)CCN)OC[C@]1(C)O [Example 50, 6′-(2(S)-Hydroxy-3-propanoic)-1-(4-amino-2(S)-hydroxy-butyryl)-sisomicin]",> 16,> 16,–
"CN[C@@H]1[C@@H](O)[C@@H](O[C@@H]2[C@@H](O)[C@H](O[C@H]3OC(CNCC(C)(C)CN)=CC[C@H]3N)[C@@H](N)C[C@H]2NC(=O)[C@@H](O)CN)OC[C@]1(C)O [Example 51, 6′-(2,2-Dimethyl-3-amino-propyl)-1-(3-amino-2(S)-hydroxy-propionyl)-sisomicin]",–,–,"MIC AECO001 [1, 3]: A (MIC's of 1.0 μg/mL or less = A); MIC APAE001 [2, 4]: C (MIC's of greater than 16.0 μg/mL = C)"
"CN[C@@H]1[C@@H](O)[C@@H](O[C@@H]2[C@@H](O)[C@H](O[C@H]3OC(CNCCC(N)C4CC4)=CC[C@H]3N)[C@@H](N)C[C@H]2NC(=O)[C@@H](O)CN)OC[C@]1(C)O (stereo partly drawn) [Example 52, 6′-(3-Amino-3-cyclopropyl-propyl)-1-(3-amino-2(S)-hydroxy-propionyl)-sisomicin]",–,–,"MIC AECO001 [1, 3]: A (MIC's of 1.0 μg/mL or less = A); MIC APAE001 [2, 4]: B (MIC's of greater than 1.0 μg/mL to 16.0 μg/mL = B)"
"CN[C@@H]1[C@@H](O)[C@@H](O[C@@H]2[C@@H](O)[C@H](O[C@H]3OC(CNC[C@H]4C[C@H](O)CN4)=CC[C@H]3N)[C@@H](N)C[C@H]2NC(=O)[C@@H](O)CN)CC[C@]1(C)O [Example 53, 6′-(Methyl-4(S)-hydroxy-pyrrolidin-2(R)-yl)-1-(3-amino-2(S)-hydroxy-propionyl)-sisomicin]",1 to 16,> 16,–
"CN[C@@H]1[C@@H](O)[C@@H](O[C@@H]2[C@@H](O)[C@H](O[C@H]3OC(CNCCCO)=CC[C@H]3N)[C@@H](N)C[C@H]2NC(=O)[C@@H](O)CN)OC[C@]1(C)O [Example 54, 6′-(3-Propanol)-1-(3-amino-2(S)-hydroxy-propionyl)-sisomicin]",< 1,1 to 16,–
"CN[C@@H]1[C@@H](O)[C@@H](O[C@@H]2[C@@H](O)[C@H](O[C@H]3OC(CNCC(C)(C)N)=CC[C@H]3N)[C@@H](N)C[C@H]2NC(=O)[C@@H](O)CN)OC[C@]1(C)O [Example 55, 6′-(2-Methyl-2-amino-propyl)-1-(3-amino-2(S)-hydroxy-propionyl)-sisomicin]",1 to 16,> 16,–

# From US11117915B2, “Antibacterial aminoglycoside analogs” (Cipla USA, Inc., priority 2007, dated 2021)
